Measurements reported in PubChem BioAssay (NCI).
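Assay format: 96-well plates, 48-hour exposure. TGI denotes the concentration required for complete inhibition of growth.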

Assays:
Assay in all cases: NCI anticancer screen, dose series, 48 h
BT-549 breast = test system: BT-549 breast
HL-60(TB) leukemia = test system: HL-60(TB) leukemia
HT29 colon = test system: HT29 colon
M14 melanoma = test system: M14 melanoma
MDA-MB-231 breast = test system: MDA-MB-231 breast
MDA-N = test system: MDA-N
OVCAR-3 ovarian = test system: OVCAR-3 ovarian
OVCAR-4 ovarian = test system: OVCAR-4 ovarian
OVCAR-5 ovarian = test system: OVCAR-5 ovarian
PC-3 prostate = test system: PC-3 prostate
RPMI-8226 leukemia = test system: RPMI-8226 leukemia
SF-268 CNS = test system: SF-268 CNS
SNB-19 CNS = test system: SNB-19 CNS
SR leukemia = test system: SR leukemia
SW-620 colon = test system: SW-620 colon
SK-MEL-28 melanoma = test system: SK-MEL-28 melanoma

Structure (SMILES): Cc1ccc(O)c(Cc2nc3ccccc3nc2-c2cccc(Br)c2)c1
- TGI (BT-549 breast): > 100 µM
- TGI (HL-60(TB) leukemia): > 100 µM
- TGI (HT29 colon): > 100 µM
- TGI (M14 melanoma): > 100 µM
- TGI (MDA-MB-231 breast): > 100 µM
- TGI (MDA-N): > 100 µM
- TGI (OVCAR-3 ovarian): > 100 µM
- TGI (OVCAR-4 ovarian): > 100 µM
- TGI (OVCAR-5 ovarian): > 100 µM
- TGI (PC-3 prostate): > 100 µM
- TGI (RPMI-8226 leukemia): > 100 µM
- TGI (SF-268 CNS): > 100 µM
- TGI (SNB-19 CNS): 69.7 µM
- TGI (SR leukemia): > 100 µM
- TGI (SW-620 colon): > 100 µM

Structure (SMILES): O=C(NN=C1CCCCC1)Nc1ccccc1Cl
- TGI (BT-549 breast): > 100 µM
- TGI (HL-60(TB) leukemia): > 100 µM
- TGI (HT29 colon): > 100 µM
- TGI (M14 melanoma): > 100 µM
- TGI (MDA-MB-231 breast): > 100 µM
- TGI (MDA-N): 39 µM
- TGI (OVCAR-3 ovarian): 38.8 µM
- TGI (OVCAR-4 ovarian): > 100 µM
- TGI (OVCAR-5 ovarian): > 100 µM
- TGI (PC-3 prostate): > 100 µM
- TGI (RPMI-8226 leukemia): > 100 µM
- TGI (SF-268 CNS): > 100 µM
- TGI (SK-MEL-28 melanoma): > 100 µM
- TGI (SNB-19 CNS): > 100 µM
- TGI (SR leukemia): > 100 µM
- TGI (SW-620 colon): > 100 µM

Structure (SMILES): O=c1c2c([nH]c3cc4c(cc13)OCO4)-c1ccccc1CCC2
- TGI (BT-549 breast): > 50 µM
- TGI (HT29 colon): > 50 µM
- TGI (M14 melanoma): > 50 µM
- TGI (MDA-MB-231 breast): > 50 µM
- TGI (MDA-N): > 50 µM
- TGI (OVCAR-3 ovarian): > 50 µM
- TGI (OVCAR-4 ovarian): > 50 µM
- TGI (OVCAR-5 ovarian): > 50 µM
- TGI (PC-3 prostate): > 50 µM
- TGI (RPMI-8226 leukemia): > 50 µM
- TGI (SF-268 CNS): > 50 µM
- TGI (SK-MEL-28 melanoma): > 50 µM
- TGI (SNB-19 CNS): > 50 µM
- TGI (SR leukemia): 38.4 µM
- TGI (SW-620 colon): > 50 µM

Structure (SMILES): C=CCN1CC2CN=NC2(C#N)C1 (stereo not drawn)
- TGI (BT-549 breast): > 100 µM
- TGI (HL-60(TB) leukemia): > 100 µM
- TGI (HT29 colon): > 100 µM
- TGI (MDA-MB-231 breast): > 100 µM
- TGI (MDA-N): > 100 µM
- TGI (OVCAR-3 ovarian): > 100 µM
- TGI (OVCAR-4 ovarian): > 100 µM
- TGI (OVCAR-5 ovarian): > 100 µM
- TGI (PC-3 prostate): > 100 µM
- TGI (SF-268 CNS): > 100 µM
- TGI (SK-MEL-28 melanoma): > 100 µM
- TGI (SNB-19 CNS): > 100 µM
- TGI (SR leukemia): > 100 µM
- TGI (SW-620 colon): > 100 µM

Structure (SMILES): COCC(=O)[C@]1(O)Cc2c(O)c3c(c(O)c2[C@@H](OC2CC(N)C(O)C(C)O2)C1)C(=O)c1c(OC)cccc1C3=O (stereo partly drawn)
- TGI (BT-549 breast): 1.99 µM
- TGI (HL-60(TB) leukemia): 0.184 µM
- TGI (HT29 colon): 0.735 µM
- TGI (M14 melanoma): 0.275 µM
- TGI (MDA-MB-231 breast): 2.97 µM
- TGI (MDA-N): 0.249 µM
- TGI (OVCAR-3 ovarian): 0.536 µM
- TGI (OVCAR-4 ovarian): 1.56 µM
- TGI (OVCAR-5 ovarian): 1.04 µM
- TGI (PC-3 prostate): 1.48 µM
- TGI (RPMI-8226 leukemia): 0.564 µM
- TGI (SF-268 CNS): 0.267 µM
- TGI (SK-MEL-28 melanoma): 0.398 µM
- TGI (SNB-19 CNS): 2.45 µM
- TGI (SR leukemia): 0.159 µM
- TGI (SW-620 colon): 3.01 µM

Structure (SMILES): COc1cc2c3c(cc(Cl)nc3c1OC)C(O)(CC(C)=O)C(=O)N2 (stereo not drawn)
- TGI (BT-549 breast): 30.8 µM
- TGI (HL-60(TB) leukemia): 24.1 µM
- TGI (HT29 colon): > 61.9 µM
- TGI (M14 melanoma): 36.5 µM
- TGI (MDA-MB-231 breast): 33 µM
- TGI (MDA-N): 31.1 µM
- TGI (OVCAR-3 ovarian): > 100 µM
- TGI (OVCAR-4 ovarian): 32.4 µM
- TGI (OVCAR-5 ovarian): > 56.4 µM
- TGI (PC-3 prostate): > 56.4 µM
- TGI (RPMI-8226 leukemia): > 78.6 µM
- TGI (SF-268 CNS): 18 µM
- TGI (SK-MEL-28 melanoma): > 60.7 µM
- TGI (SNB-19 CNS): > 54.7 µM
- TGI (SR leukemia): > 66.9 µM
- TGI (SW-620 colon): > 71 µM

Structure (SMILES): COC(=O)C[C@H](COCc1ccccc1)NC(=O)C[C@H](COCc1ccccc1)NC(=O)C[C@H](COCc1ccccc1)NC(=O)OC(C)(C)C
- TGI (BT-549 breast): > 100 µM
- TGI (HL-60(TB) leukemia): > 100 µM
- TGI (HT29 colon): > 100 µM
- TGI (M14 melanoma): > 100 µM
- TGI (MDA-MB-231 breast): > 100 µM
- TGI (MDA-N): > 100 µM
- TGI (OVCAR-3 ovarian): > 100 µM
- TGI (OVCAR-4 ovarian): 17.4 µM
- TGI (OVCAR-5 ovarian): > 100 µM
- TGI (PC-3 prostate): 41.2 µM
- TGI (RPMI-8226 leukemia): > 100 µM
- TGI (SF-268 CNS): > 100 µM
- TGI (SK-MEL-28 melanoma): > 100 µM
- TGI (SNB-19 CNS): > 100 µM
- TGI (SR leukemia): > 100 µM
- TGI (SW-620 colon): > 100 µM
